Experiments:
thrombin = thrombin (Homo sapiens, UniProt P00734); assay: Thrombin activity, chromogenic substrate S-2238 (IC50); assay type: biochemical
Description: Thrombin activity was measured using a chromogenic substrate S-2238 (Quadratec). […] Kinetic readings at 405 nm were monitored every 12 seconds for a total duration of 3 hours at 37° C. Gradients of initial rates were determined and employed to calculate IC50 values using Grafit software.

[1] = tested on: human normal pool platelet poor plasma; assay: Activated Partial Thromboplastin Time (aPTT) clotting assay; assay type: biochemical; conditions: for Mean aPTT: platelet poor plasma, mean ± SEM
Description: The activated Partial Thromboplastin Time (aPTT) employed was the PTT Automate 5 reagent kit from Stago. The coagulometer (Start 4, Diagnostica Stago, Asnieres sur Seine Cedex, France) was preheated to 37° C. prior to starting any measurements. A sample of human normal pool platelet poor plasma (n=22) was defrosted at 37° C. from −80° C. […] Then 48.5 μL of PTT automate was added to the cuvette and left to incubate for 180 seconds at 37° C. in the coagulometer, after which 50 μL of 25 mM calcium chloride was immediately added to initiate clotting. At the end of the test, the time clotting times were recorded.
This method is known to the person skilled in the art.

[2] = tested on: murine tail bleeding model; assay: Murine tail bleeding time; assay type: in vivo, C57BL/6 male mice
Excerpt: (§1) The same animals employed for anticoagulant efficacy were subjected to tail bleeding immediately following the end of the efficacy experiments. Tails were cut with a scalpel at 2 mm diameter using a home-made device for measuring tail diameter. The tails were immediately suspended into lml warmed saline and the time taken to cessation of bleeding monitored (panel A). The collected saline/blood mix at the end of the experiments were frozen and subjected to haemoglobin determination (panel B).
as §1, with “1 ml” for “lml”, “monitored.” for “monitored (panel A). The collected saline/blood mix at the end of the experiments were frozen and subjected to haemoglobin determination (panel B).”

Question: What does the source list for `CC[C@H](C)[C@H](NC(=O)[C@H](C)NC(=O)[C@H](CCC(=O)O)NC(=O)[C@H](Cc1ccccc1)NC(=O)[C@H](CC(=O)O)NC(=O)[C@H](Cc1ccccc1)NC(=O)[C@@H]1CCCN1C(=O)[C@@H]1CCCN1C(=O)[C@H](C)NC(=O)[C@@H](NC(=O)[C@H](CCCCN)NC(=O)[C@H](Cc1c[nH]cn1)NC(=O)[C@H](CCSC)NC(=O)[C@H](CCCNC(=N)N)NC(=O)[C@@H]1CCCN1C(=O)[C@H](CCC(=O)O)NC(=O)[C@H](C)NC(=O)[C@@H](NC(=O)[C@@H](N)CC(=O)O)C(C)C)[C@@H](C)O)C(=O)N1CCC[C@H]1C(=O)N[C@@H](CCC(=O)O)C(=O)N[C@@H](CCC(=O)O)C(=O)N[C@@H](Cc1ccc(O)cc1)C(=O)N[C@@H](Cc1ccc(OS(=O)(=O)O)cc1)C(=O)N[C@@H](CC(C)C)C(=O)O` [SYM-3491-SO3]?
Answer: IC50 (thrombin): 172 ± 6.5 nM; Mean aPTT ([1]; 0.11 nM, 3 min incubation): 32.03 ± 0.07 s; Mean aPTT ([1]; 0.44 nM): 32.07 ± 0.03 s; Mean aPTT ([1]; 0.88 nM): 31.83 ± 0.03 s; Mean aPTT ([1]; 1.75 nM): 32.20 ± 0.15 s; Mean aPTT ([1]; 3.50 nM): 32.33 ± 0.07 s; Mean aPTT ([1]; 7.00 nM): 33.27 ± 0.27 s; Mean aPTT ([1]; 14.00 nM): 35.33 ± 0.33 s; Mean aPTT ([1]; 28.00 nM): 38.23 ± 0.48 s; Mean aPTT ([1]; 56.00 nM): 44.17 ± 0.43 s; Mean aPTT ([1]; 112.00 nM): 49.87 ± 0.20 s; Mean aPTT ([1]; 224.00 nM): 60.33 ± 0.17 s; Mean aPTT ([1]; 448.00 nM): 70.97 ± 0.69 s; potency in aPTT, comparison ([1]; in plasma): slightly less than variegin; prolongation of bleeding time ([2]; 20 mg/kg, at the end of the experiment): ~2 fold; risk of bleeding ([2]; at doses achieving 50% inhibition of fibrin clot formation): increases risk of bleeding; prolongation of bleeding time ([2]; at the dose required to achieve at least 50% inhibition of fibrin clot formation): ~2 fold

Question: Which results are given for bivalirudin [reference compound]?
Answer: Mean aPTT ([1]; 0.11 nM, 3 min incubation): 32.03 ± 0.35 s; Mean aPTT ([1]; 0.44 nM): 31.07 ± 0.09 s; Mean aPTT ([1]; 0.88 nM): 31.20 ± 0.06 s; Mean aPTT ([1]; 1.75 nM): 31.47 ± 0.37 s; Mean aPTT ([1]; 3.50 nM): 32.43 ± 0.13 s; Mean aPTT ([1]; 7.00 nM): 36.30 ± 0.20 s; Mean aPTT ([1]; 14.00 nM): 40.27 ± 0.60 s; Mean aPTT ([1]; 28.00 nM): 46.13 ± 1.25 s; Mean aPTT ([1]; 56.00 nM): 53.97 ± 0.26 s; Mean aPTT ([1]; 112.00 nM): 63.43 ± 2.32 s; Mean aPTT ([1]; 224.00 nM): 79.50 ± 0.75 s; Mean aPTT ([1]; 448.00 nM): 89.77 ± 3.99 s
